Test results published in paper PMC4620497 (Scientific Reports, 2015).

Key:
[1] = molecular target: PAK1 (Homo sapiens, UniProt Q13153); design: method as in earlier work; settings: Table S1; cited from earlier work
[2] = molecular target: T1, BMPR1B (Homo sapiens, UniProt O00238); assay: KINOMEscan panel screen; format: binding; settings: read-out: Percent Control(%)
T1 construct: purchased DiscoveRx KINOMEscan (Ambit Biosciences)

[3] = molecular target: T2, BMX (Homo sapiens, UniProt P51813); assay: KINOMEscan panel screen; format: binding; settings: read-out: Percent Control(%)
T2 construct: purchased DiscoveRx KINOMEscan (Ambit Biosciences)
T2 sequence (P51813 whole entry): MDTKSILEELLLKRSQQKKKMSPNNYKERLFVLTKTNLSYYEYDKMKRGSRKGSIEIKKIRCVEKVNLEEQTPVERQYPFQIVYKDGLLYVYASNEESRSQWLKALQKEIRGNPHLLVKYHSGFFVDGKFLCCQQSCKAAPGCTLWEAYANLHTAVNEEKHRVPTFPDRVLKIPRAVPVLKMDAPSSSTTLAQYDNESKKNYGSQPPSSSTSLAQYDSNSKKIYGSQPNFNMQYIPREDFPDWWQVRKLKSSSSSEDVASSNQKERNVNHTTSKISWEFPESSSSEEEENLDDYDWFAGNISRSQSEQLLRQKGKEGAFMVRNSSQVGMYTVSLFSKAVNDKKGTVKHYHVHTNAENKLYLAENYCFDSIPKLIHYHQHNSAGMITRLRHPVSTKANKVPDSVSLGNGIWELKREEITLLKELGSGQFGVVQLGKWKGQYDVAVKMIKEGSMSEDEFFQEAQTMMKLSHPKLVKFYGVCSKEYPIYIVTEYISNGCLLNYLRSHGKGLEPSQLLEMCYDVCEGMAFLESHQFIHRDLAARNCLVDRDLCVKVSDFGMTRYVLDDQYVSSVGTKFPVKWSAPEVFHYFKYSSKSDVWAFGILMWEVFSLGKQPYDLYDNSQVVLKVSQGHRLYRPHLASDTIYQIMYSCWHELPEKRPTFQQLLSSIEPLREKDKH

[4] = molecular target: T3, DRAK2 (Homo sapiens, UniProt O94768); assay: KINOMEscan panel screen; format: binding; settings: read-out: Percent Control(%)
T3 construct: purchased DiscoveRx KINOMEscan (Ambit Biosciences)
T3 sequence (O94768 whole entry): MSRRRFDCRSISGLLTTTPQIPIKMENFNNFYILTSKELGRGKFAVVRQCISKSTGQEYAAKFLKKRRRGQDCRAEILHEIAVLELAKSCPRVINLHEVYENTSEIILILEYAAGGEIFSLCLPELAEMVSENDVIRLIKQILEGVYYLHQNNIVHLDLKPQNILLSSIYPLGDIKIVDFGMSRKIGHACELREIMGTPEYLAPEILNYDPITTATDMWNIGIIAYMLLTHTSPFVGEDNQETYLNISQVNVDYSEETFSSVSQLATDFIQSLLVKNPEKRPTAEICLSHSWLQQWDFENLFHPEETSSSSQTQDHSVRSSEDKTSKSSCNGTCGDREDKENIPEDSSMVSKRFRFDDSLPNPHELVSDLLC

[5] = molecular target: T4, IRAK3 (Homo sapiens, UniProt Q9Y616); assay: KINOMEscan panel screen; format: binding; settings: read-out: Percent Control(%)
T4 construct: purchased DiscoveRx KINOMEscan (Ambit Biosciences)
T4 sequence (Q9Y616 whole entry): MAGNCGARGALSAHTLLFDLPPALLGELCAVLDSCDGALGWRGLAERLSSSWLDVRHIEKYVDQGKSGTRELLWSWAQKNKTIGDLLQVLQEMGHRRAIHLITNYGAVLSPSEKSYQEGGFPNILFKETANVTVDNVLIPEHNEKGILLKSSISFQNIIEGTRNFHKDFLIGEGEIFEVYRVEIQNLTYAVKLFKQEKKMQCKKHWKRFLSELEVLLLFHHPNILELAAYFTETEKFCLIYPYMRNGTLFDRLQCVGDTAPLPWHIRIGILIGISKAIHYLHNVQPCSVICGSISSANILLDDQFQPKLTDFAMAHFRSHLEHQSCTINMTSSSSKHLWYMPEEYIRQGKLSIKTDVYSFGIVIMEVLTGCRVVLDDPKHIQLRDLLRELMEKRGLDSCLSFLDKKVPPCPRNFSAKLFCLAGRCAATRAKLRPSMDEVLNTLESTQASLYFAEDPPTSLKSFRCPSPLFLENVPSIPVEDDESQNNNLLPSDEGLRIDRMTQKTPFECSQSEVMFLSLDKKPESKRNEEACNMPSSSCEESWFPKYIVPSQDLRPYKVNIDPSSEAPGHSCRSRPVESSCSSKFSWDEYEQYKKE

[6] = molecular target: T5, JAK1(JH1domain-catalytic) (Homo sapiens, UniProt P23458); assay: KINOMEscan panel screen; format: binding; settings: read-out: Percent Control(%)
T5 construct: JAK1(JH1domain-catalytic); purchased DiscoveRx KINOMEscan (Ambit Biosciences)
T5 sequence (P23458 854-1154 limits assumed): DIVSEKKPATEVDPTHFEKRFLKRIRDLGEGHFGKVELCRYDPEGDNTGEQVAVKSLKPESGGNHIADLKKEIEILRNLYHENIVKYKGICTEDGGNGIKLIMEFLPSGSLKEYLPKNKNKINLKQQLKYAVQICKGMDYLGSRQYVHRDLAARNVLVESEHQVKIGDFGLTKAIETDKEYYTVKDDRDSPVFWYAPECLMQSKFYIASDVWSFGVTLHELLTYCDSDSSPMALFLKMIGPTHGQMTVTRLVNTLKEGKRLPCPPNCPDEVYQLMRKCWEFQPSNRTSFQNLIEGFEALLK

[7] = molecular target: T6, PCTK2 (Homo sapiens, UniProt Q00537); assay: KINOMEscan panel screen; format: binding; settings: read-out: Percent Control(%)
T6 construct: purchased DiscoveRx KINOMEscan (Ambit Biosciences)
T6 sequence (Q00537 whole entry): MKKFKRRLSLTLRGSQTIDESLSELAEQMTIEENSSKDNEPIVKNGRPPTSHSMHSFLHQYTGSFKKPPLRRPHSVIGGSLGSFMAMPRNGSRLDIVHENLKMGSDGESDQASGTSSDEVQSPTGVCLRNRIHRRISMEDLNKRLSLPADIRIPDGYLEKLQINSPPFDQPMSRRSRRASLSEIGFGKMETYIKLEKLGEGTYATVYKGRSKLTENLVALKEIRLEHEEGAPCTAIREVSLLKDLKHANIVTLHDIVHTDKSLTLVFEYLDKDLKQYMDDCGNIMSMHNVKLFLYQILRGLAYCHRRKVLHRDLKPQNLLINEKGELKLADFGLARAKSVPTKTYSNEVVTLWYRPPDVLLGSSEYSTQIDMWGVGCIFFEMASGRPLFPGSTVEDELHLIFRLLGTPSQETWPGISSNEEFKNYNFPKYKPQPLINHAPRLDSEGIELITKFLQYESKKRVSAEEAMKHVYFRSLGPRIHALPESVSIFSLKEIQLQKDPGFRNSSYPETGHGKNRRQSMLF

[8] = molecular target: T7, TIE2 (Homo sapiens, UniProt Q02763); assay: KINOMEscan kinase binding assay (Kd)
T7 construct: purchased DiscoveRx KINOMEscan (Ambit Biosciences)
T7 sequence (Q02763 23-1124): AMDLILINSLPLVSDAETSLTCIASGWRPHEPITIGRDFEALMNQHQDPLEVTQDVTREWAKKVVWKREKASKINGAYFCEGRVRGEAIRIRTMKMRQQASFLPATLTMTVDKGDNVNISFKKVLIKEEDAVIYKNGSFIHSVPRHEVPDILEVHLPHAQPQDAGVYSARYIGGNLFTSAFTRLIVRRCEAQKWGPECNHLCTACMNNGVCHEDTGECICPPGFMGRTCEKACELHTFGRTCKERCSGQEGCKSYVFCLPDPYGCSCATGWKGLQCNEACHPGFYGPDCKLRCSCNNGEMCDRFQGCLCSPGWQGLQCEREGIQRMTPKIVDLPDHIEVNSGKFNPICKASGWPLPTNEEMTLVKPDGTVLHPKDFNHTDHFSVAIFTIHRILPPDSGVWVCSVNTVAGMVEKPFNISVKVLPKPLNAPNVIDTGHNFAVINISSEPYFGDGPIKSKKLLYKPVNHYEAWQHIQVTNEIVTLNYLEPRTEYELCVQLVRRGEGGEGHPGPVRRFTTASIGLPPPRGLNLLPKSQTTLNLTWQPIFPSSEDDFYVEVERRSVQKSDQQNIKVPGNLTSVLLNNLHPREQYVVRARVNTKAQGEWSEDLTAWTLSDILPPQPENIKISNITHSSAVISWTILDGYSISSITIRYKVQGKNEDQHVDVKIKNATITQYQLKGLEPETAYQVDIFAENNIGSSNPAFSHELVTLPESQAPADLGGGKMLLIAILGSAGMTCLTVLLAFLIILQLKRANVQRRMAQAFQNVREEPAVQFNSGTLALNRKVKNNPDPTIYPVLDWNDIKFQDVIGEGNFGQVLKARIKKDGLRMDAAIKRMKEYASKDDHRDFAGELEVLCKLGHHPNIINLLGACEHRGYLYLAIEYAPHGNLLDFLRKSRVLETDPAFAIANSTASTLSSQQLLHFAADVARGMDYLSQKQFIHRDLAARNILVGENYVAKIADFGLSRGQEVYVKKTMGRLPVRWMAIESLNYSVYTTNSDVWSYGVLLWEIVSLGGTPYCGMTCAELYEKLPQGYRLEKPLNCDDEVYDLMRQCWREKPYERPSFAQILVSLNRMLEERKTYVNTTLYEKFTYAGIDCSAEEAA

[9] = system: normal PBMCs; assay: Long-term culture-initiating cell (LTC-IC) assay; format: cell-based, human; settings: 10 nM and 50 nM
Protocol: (§1) In addition to the SP cell assay, we also evaluated the effects of SKLB-677 on the long-term culture-initiating (LTC-IC) cells; the long-term culture of LTC-IC cells can be used as surrogate markers of self-renewal capacity. SKLB-677 treated primary AML PBMCs or normal PBMCs were co-cultured with M2-10B4 stromal cells for 6 weeks, and then the colony formation capacity of LTC-IC cells were determined. In this assay, three primary AML PBMC samples and three normal PBMC samples were included, and each sample was conducted in triplicate.
(§2) PBMCs from AML patients (n = 3) and normal people (n = 3) were plated on M2-10B4 feeder cell layers (irradiated with 8000cGy) established in 6-well plates in HLTM medium (Myelocult H5100, […]) freshly supplemented with 10^−6 M hydrocortisone ([…]). Cultures were maintained with 0.1% DMSO or SKLB-677 for […] with weekly half-media changes, before seeding harvested cells into Colony-forming unit assays (cells were seeded in ultra-low attachment 6-well plates (Corning) in triplicate with the complete MethoCult Media ([…]) for 14 days). The assay for each sample was performed in triplicate. The colonies were counted under a microscope, and an obvious and visible cell cluster was considered a colony. The representative images were taken on an Axiovert 200 microscope with an AxiocamMRm camera with 0.30 aperture. Image acquisition software: AxioVisionRell 4.8.
(§3) Figure 4 The in vitro effects of SKLB-677 on leukemia side population (SP) cells and leukemia-initiating cells (LICs). (a) MV4-11 cells were stained with Hoechst 33342 after a treatment of SKLB-677 for 12 h. […] (b) The separated PBMCs were incubated on M2-10B4 stromal cells with SKLB-677 (1 nM and 10 nM for primary AML PBMCs, 10 nM and 50 nM for normal PBMCs) and/or 0.1% DMSO and then half medium replaced weekly for six weeks in long-term culture-initiating cells (LTC-IC) assays. Representative CAFCs (cobble stone area forming cells, the clusters of LTC-IC cells) are shown (left, black arrows).

[10] = system: primary AML PBMCs; assay: Long-term culture-initiating cell (LTC-IC) assay; format: cell-based, human
Protocol: as §1, §2, §3

[11] = system: HSCs (LSK cells), WBC and RBC; assay: Influence on normal HSCs and blood cells in Balb/c mice; format: in vivo, mouse; settings: Balb/c mice, 1, 3, 10 mg/kg/d orally for 21 days
Protocol: To examine whether SKLB-677 has influence on normal HSCs and normal blood cells, we performed an experiment using a Balb/c mouse model, in which Balb/c mice (n = 8 in each group) were treated with indicated concentrations of SKLB-677 for 21 days, followed by detections of the proportion of HSCs (immunophenotypically characterized as Lineage^−Sca-1^+ c-Kit^+ (LSK) cells), white blood cell (WBC) and red blood cell (RBC) counts. […]
were d etected usin g BD FACSAriaⅢflow c ytometer.
Isolation of murine Bone Marrow ( BM) cells.
Balb/c mice were grouped to 4 groups (4 female mice and 4 male mice p er group) and orally treated with 0, 1, 3, and 10m g/kg/ d SKLB -677 for 21 da ys . […]
Supplementary Figure S7.The influence of SKLB -677 on mouse normal HSC and blood cells (8 mice in each group) . a ,b, The mice were o rally treat ed with indicated concentr ations o f S K LB -677 for 21d, and then W BC and RBC were counted using a blood anal yzer instrument. ns, not statistically significant. c , Th e mice were orally treated with indicated do ses of SK LB-677 for 21d, and the blood marrow cells were collected for the detection of HSC (immunophenot ypicall y ch aracterized as Lineage-Sca-1+c-Kit+, LSK) populationusing corresponding antibodies. d, The statistical data of HSC numbers. ns, not statistically significant. […]

Sequence of PAK1 (Q13153 whole entry): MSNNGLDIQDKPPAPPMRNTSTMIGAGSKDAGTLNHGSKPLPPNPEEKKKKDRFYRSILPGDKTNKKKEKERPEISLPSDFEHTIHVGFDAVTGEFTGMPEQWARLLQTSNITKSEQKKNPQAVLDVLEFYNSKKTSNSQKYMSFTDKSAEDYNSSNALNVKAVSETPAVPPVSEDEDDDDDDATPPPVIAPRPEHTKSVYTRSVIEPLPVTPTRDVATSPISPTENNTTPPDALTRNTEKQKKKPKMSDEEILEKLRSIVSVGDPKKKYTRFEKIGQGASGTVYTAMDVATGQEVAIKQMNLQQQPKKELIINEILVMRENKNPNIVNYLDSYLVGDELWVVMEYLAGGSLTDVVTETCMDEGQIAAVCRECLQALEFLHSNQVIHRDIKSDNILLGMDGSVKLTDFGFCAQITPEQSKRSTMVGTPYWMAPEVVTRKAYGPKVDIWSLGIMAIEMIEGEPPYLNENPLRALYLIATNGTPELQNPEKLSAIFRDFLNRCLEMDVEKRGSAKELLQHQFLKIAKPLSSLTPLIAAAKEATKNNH
T1 sequence (O00238 14-502): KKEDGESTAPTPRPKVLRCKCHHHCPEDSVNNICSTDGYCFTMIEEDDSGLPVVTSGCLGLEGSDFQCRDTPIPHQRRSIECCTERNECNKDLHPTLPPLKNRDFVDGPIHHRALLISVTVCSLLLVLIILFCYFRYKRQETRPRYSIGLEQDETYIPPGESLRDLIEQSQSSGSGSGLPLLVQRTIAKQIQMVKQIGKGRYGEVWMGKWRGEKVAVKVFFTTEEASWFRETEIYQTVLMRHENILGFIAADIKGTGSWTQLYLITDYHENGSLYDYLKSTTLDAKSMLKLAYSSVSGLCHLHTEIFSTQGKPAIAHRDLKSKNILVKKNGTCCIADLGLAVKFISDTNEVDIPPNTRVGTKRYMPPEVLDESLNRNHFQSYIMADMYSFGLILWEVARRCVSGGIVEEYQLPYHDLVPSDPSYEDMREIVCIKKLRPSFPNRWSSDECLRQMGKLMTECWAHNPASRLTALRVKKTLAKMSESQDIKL

Compound | IC50 [1] | remaining binding at 10 µM [2] | remaining binding at 10 µM [3] | remaining binding at 10 µM [4] | remaining binding at 10 µM [5] | remaining binding at 10 µM [6] | remaining binding at 10 µM [7] | Kd [8] | average LTC-IC colony numbers of three normal PBMC samples [9] | average LTC-IC colony numbers of three samples compared with control ([10]; 1 nM) | average LTC-IC colony numbers of three samples compared with control ([10]; 10 nM) | HSCs (LSK cells) [11] | white and red blood counts [11]
O=C(Nc1ccc(Oc2ncnc3[nH]ncc23)cc1)Nc1ccc(Cl)c(C(F)(F)F)c1 [Compound 1, 1-(4-(1H-pyrazolo[3,4-d]pyrimidin-4-yloxy)phenyl)-3-(4-chloro-3-(trifluoromethyl)phenyl)urea] | > 10000 nM | – | – | – | – | – | – | – | – | – | – | – | –
CC(C)(C)c1cc(NC(=O)Nc2ccc(Oc3ncnc4[nH]ncc34)c(F)c2)no1 [SKLB-677, 1-(4-(1H-pyrazolo[3,4-d]pyrimidin-4-yloxy)-3-fluorophenyl)-3-(5-tert-butylisoxazol-3-yl)urea] | – | 88% | 73% | 78% | 52% | 12% | 0% | 99 nM | almost not changed | 30% | 10% | not inhibited | normal
